Source: PubChem BioAssay (NCI)
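A five-concentration, 48-hour dose response in 96-well plates underlies each endpoint, interpolated linearly between surrounding concentrations. GI50 marks 50% less growth. At the TGI there is no net growth.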

Experiments:
Assay in all cases: NCI-60 cell line screen, 48 h
[1] = test system: M14 melanoma
[2] = test system: MDA-MB-435
[3] = test system: NCI/ADR-RES ovarian
[4] = test system: RPMI-8226 leukemia
[5] = test system: EKVX NSCLC
[6] = test system: COLO 205 colon
[7] = test system: DU-145 prostate
[8] = test system: A549 NSCLC
[9] = test system: OVCAR-8 ovarian
[10] = test system: UACC-62 melanoma
[11] = test system: SW-620 colon
[12] = test system: NCI-H522 lung
[13] = test system: SF-539 CNS
[14] = test system: RXF 393 renal
[15] = test system: LOX IMVI melanoma
[16] = test system: HCT-15 colon
[17] = test system: MALME-3M melanoma
[18] = test system: NCI-H460 lung
[19] = test system: HS 578T breast
[20] = test system: ACHN renal
[21] = test system: MDA-MB-231 breast
[22] = test system: SK-MEL-2 melanoma
[23] = test system: PC-3 prostate
[24] = test system: MOLT-4 leukemia
[25] = test system: BT-549 breast
[26] = test system: 786-0 renal
[27] = test system: CCRF-CEM leukemia
[28] = test system: HOP-92 NSCLC
[29] = test system: U251 CNS
[30] = test system: MCF7 breast
[31] = test system: UO-31 renal
[32] = test system: SR leukemia
[33] = test system: K-562 leukemia
[34] = test system: HT29 colon
[35] = test system: UACC-257 melanoma
[36] = test system: SK-MEL-5 melanoma
[37] = test system: HL-60(TB) leukemia
[38] = test system: CAKI-1 renal
[39] = test system: T-47D breast
[40] = test system: SK-OV-3 ovarian
[41] = test system: TK-10 renal
[42] = test system: NCI-H23 lung
[43] = test system: HOP-62 NSCLC
[44] = test system: KM12 colon
[45] = test system: NCI-H226 lung
[46] = test system: HCT-116 colon
[47] = test system: SNB-75 CNS
[48] = test system: SNB-19 CNS
[49] = test system: SF-295 CNS
[50] = test system: HCC-2998 colon
[51] = test system: IGROV1 ovarian
[52] = test system: OVCAR-5 ovarian
[53] = test system: SF-268 CNS
[54] = test system: SK-MEL-28 melanoma
[55] = test system: OVCAR-4 ovarian
[56] = test system: SN12C renal
[57] = test system: OVCAR-3 ovarian
[58] = test system: MDA-N
[59] = test system: A498 renal

COc1cc(/C=C2\CCC(C)C3=C(c4cc(OC)c(OC)c(OC)c4)C(C#N)=C(N)OC32)cc(OC)c1OC (stereo not given)
TGI [1]: 6.92 µM
TGI [2]: 21.6 µM
TGI [3]: 99.2 µM
TGI [4]: 6.08 µM
TGI [5]: 47.6 µM
TGI [6]: 5.48 µM
TGI [7]: > 100 µM
TGI [8]: > 100 µM
TGI [9]: > 73 µM
TGI [10]: 23.2 µM
TGI [11]: > 100 µM
TGI [12]: 7.75 µM
TGI [13]: 4.98 µM
TGI [14]: 4.36 µM
TGI [15]: 8.99 µM
TGI [16]: > 68.2 µM
TGI [17]: 9.03 µM
TGI [18]: > 100 µM
TGI [19]: 14.6 µM
TGI [20]: > 65.6 µM
TGI [21]: 10.9 µM
TGI [22]: 4.46 µM
TGI [23]: 24.8 µM
TGI [24]: > 49 µM
TGI [25]: > 100 µM
TGI [26]: 8.83 µM
TGI [27]: 26.2 µM
TGI [28]: > 31.3 µM
TGI [29]: 25.7 µM
TGI [30]: 7.4 µM
TGI [31]: > 100 µM
TGI [32]: > 37.8 µM
TGI [33]: > 100 µM
TGI [34]: 5.02 µM
TGI [35]: > 65.4 µM
TGI [36]: 7.24 µM
TGI [37]: > 25 µM
TGI [38]: > 65.2 µM
TGI [39]: 12.9 µM
TGI [40]: > 57.2 µM
TGI [41]: > 100 µM
TGI [42]: > 100 µM
TGI [43]: > 100 µM
TGI [44]: 36.8 µM
TGI [45]: 6.96 µM
TGI [46]: 11.3 µM
TGI [47]: 9.24 µM
TGI [48]: > 100 µM
TGI [49]: > 40.6 µM
TGI [50]: 32.5 µM
TGI [51]: > 52.3 µM
TGI [52]: > 64.6 µM
TGI [53]: > 100 µM
TGI [54]: 13.9 µM
TGI [55]: > 59.6 µM
TGI [56]: > 60.6 µM
TGI [57]: > 60.1 µM
TGI [58]: 21.9 µM
TGI [59]: > 53.4 µM

C[C@@H]1CCC2[C@@H](C)[C@@H](OC3CCC(O)CC3)OC3O[C@@]4(C)CCC1[C@]32OO4 (stereo not given in full)
GI50 [1]: > 100 µM
TGI [1]: > 100 µM
GI50 [2]: > 100 µM
TGI [2]: > 100 µM
GI50 [3]: 39.9 µM
TGI [3]: > 100 µM
GI50 [4]: 7.04 µM
TGI [4]: > 100 µM
GI50 [5]: 32.5 µM
TGI [5]: > 100 µM
GI50 [6]: 8.83 µM
TGI [6]: 32.7 µM
GI50 [7]: > 100 µM
TGI [7]: > 100 µM
GI50 [8]: 67.1 µM
TGI [8]: > 100 µM
GI50 [9]: 16.1 µM
TGI [9]: > 100 µM
GI50 [10]: 72 µM
TGI [10]: > 100 µM
GI50 [11]: > 100 µM
TGI [11]: > 100 µM
GI50 [12]: 38.5 µM
TGI [12]: > 100 µM
GI50 [13]: > 100 µM
TGI [13]: > 100 µM
GI50 [14]: > 100 µM
TGI [14]: > 100 µM
GI50 [15]: 24.5 µM
TGI [15]: > 100 µM
GI50 [16]: 3.61 µM
TGI [16]: > 100 µM
GI50 [17]: > 100 µM
TGI [17]: > 100 µM
GI50 [18]: > 100 µM
TGI [18]: > 100 µM
GI50 [19]: 90.2 µM
TGI [19]: > 100 µM
GI50 [20]: 67.2 µM
TGI [20]: > 100 µM
GI50 [21]: > 100 µM
TGI [21]: > 100 µM
GI50 [22]: 92.6 µM
TGI [22]: > 100 µM
GI50 [23]: 23.9 µM
TGI [23]: > 100 µM
GI50 [24]: 10.1 µM
TGI [24]: > 100 µM
GI50 [25]: > 100 µM
TGI [25]: > 100 µM
GI50 [26]: > 100 µM
TGI [26]: > 100 µM
GI50 [27]: 37.8 µM
TGI [27]: > 100 µM
GI50 [28]: 23.1 µM
TGI [28]: > 100 µM
GI50 [30]: 38.5 µM
TGI [30]: > 100 µM
GI50 [31]: 6.3 µM
TGI [31]: > 100 µM
GI50 [32]: 7.84 µM
TGI [32]: > 100 µM
GI50 [33]: 26.8 µM
TGI [33]: > 100 µM
GI50 [34]: 97.4 µM
TGI [34]: > 100 µM
GI50 [35]: > 100 µM
TGI [35]: > 100 µM
GI50 [36]: 36.3 µM
TGI [36]: > 100 µM
GI50 [37]: 4.35 µM
TGI [37]: > 100 µM
GI50 [38]: 95.9 µM
TGI [38]: > 100 µM
GI50 [39]: 19.9 µM
TGI [39]: > 100 µM
GI50 [40]: > 100 µM
TGI [40]: > 100 µM
GI50 [41]: 36.8 µM
TGI [41]: > 100 µM
GI50 [42]: 96.7 µM
TGI [42]: > 100 µM
GI50 [43]: > 100 µM
TGI [43]: > 100 µM
GI50 [44]: 51.6 µM
TGI [44]: > 100 µM
GI50 [45]: > 100 µM
TGI [45]: > 100 µM
GI50 [46]: 71.2 µM
TGI [46]: > 100 µM
GI50 [47]: > 100 µM
TGI [47]: > 100 µM
GI50 [48]: > 100 µM
TGI [48]: > 100 µM
GI50 [49]: 45.8 µM
TGI [49]: > 100 µM
GI50 [50]: > 100 µM
TGI [50]: > 100 µM
GI50 [51]: > 100 µM
TGI [51]: > 100 µM
GI50 [52]: 82.4 µM
TGI [52]: > 100 µM
GI50 [53]: 76.5 µM
TGI [53]: > 100 µM
GI50 [54]: > 100 µM
TGI [54]: > 100 µM
GI50 [55]: 46.4 µM
TGI [55]: > 100 µM
GI50 [56]: > 100 µM
TGI [56]: > 100 µM
GI50 [57]: 66.7 µM
TGI [57]: > 100 µM
GI50 [58]: > 100 µM
TGI [58]: > 100 µM
GI50 [59]: > 100 µM
TGI [59]: > 100 µM
